Source: US20150212068A1, “Cholyl-L-Lysyl-Fluorescein Assay” (Novassay SA, priority 2012, published 2015)

Experiment: Stability of CLF spiked directly in human plasma at room temperature and 4° C. (Test 3), HPLC-MS/MS
Type: in vitro ADME
Conditions: for CLF concentration: human plasma spiked 100 ng/ml, mean ± SEM (n = 2); for CLF remaining: human plasma, vs To; for percentage of compound remaining (by comparing with content at To), lowest over incubation: plasma, up to 24 h
Method: Test 3: […] The final concentration of CLF was of 100 ng/ml. Two aliquots of 200 μl of plasma spiked with CLF were taken (To) and the remaining solution was divided in 2 equal fractions. One fraction was incubated at room temperature and the second one was incubated at 4° C. Two aliquots of 200 μl were taken from both fractions after 30 min, 120 min and 24 h of incubation. Samples were stored at −70° C. until further analysis. […] Thus, a stock solution of IS at 100 μg/ml in acetonitrile was 50-fold diluted in acetonitrile in order to obtain a final concentration of 2 μg/ml. Then, 200 μl of this solution were added to each plasma sample in order to precipitate the proteins. Samples were vortexed/mixed and centrifuged 5 min at 20,000 g (4° C.). After centrifugation, the clear supernatant (around 250 μl) was transferred into 1.2 ml HPLC glass vials and sealed. Samples were placed into the refrigerated autosampler and 20 μl were injected into the HPLC-MS/MS system. Test samples were injected twice. […] The injected volume of sample was 20 μl and the “full loop” mode was applied. The temperature of the analytical column was kept at 30° C. CLF and its IS were separated on an Acclaim 120 C18 column (5 μm, 2.1×100 mm, Dionex) by elution with a linear gradient of acetonitrile in water as described in Table 6. An ion trap mass spectrometer equipped with an ESI interface was operated in the positive ionization mode. For each compound, the most abundant ion formed in MS was selected for MS/MS fragmentations. In order to increase the sensitivity and the specificity of the method, the MRM mode was selected. The most specific daughter ions formed in MS/MS were used for quantification.

[1] = room temperature (25 ± 2° C.), 0.0 hours
[2] = room temperature (25 ± 2° C.), 0.5 hours
[3] = room temperature (25 ± 2° C.), 2.0 hours
[4] = room temperature (25 ± 2° C.), 24.0 hours

With CC(CCC(=O)NC(CCCCNC(=S)Nc1ccc(-c2c3ccc(=O)cc-3oc3cc(O)ccc23)c(C(=O)O)c1)C(=O)O)C1CCC2C3C(O)CC4CC(O)CCC4(C)C3CC(O)C12C [CLF, Cholyl-L-Lysyl-Fluorescein] the “CLF stability directly in plasma” value (4° C. and room temperature, 24 h) was “stable for 24 h”, the CLF concentration (4° C., 0.0 hours) was 101.9 ± 4.6 ng/mL and the CLF concentration (4° C., 0.5 hours) was 101.4 ± 3.5 ng/mL. For the same molecule, the CLF concentration (4° C., 2.0 hours) was 89.9 ± 3.4 ng/mL, the CLF concentration (4° C., 24.0 hours) was 94.5 ± 3.6 ng/mL and the CLF concentration [1] was 101.9 ± 4.6 ng/mL. For the same molecule, the CLF concentration [2] was 85.3 ± 0.0 ng/mL, the CLF concentration [3] was 93.2 ± 0.0 ng/mL and the CLF concentration [4] was 100.7 ± 3.3 ng/mL. For the same molecule, the CLF remaining (4° C., 0.0 hours) was 100.0%, the CLF remaining (4° C., 0.5 hours) was 99.5% and the CLF remaining (4° C., 2.0 hours) was 88.2%. The CLF remaining (4° C., 24.0 hours) was 92.7%, the CLF remaining [1] was 100.0% and the CLF remaining [2] was 83.7%. For the same molecule, the CLF remaining [3] was 91.4%, the CLF remaining [4] was 98.8% and the plasmatic concentrations measured (plasma spiked with 100 ng/ml, 4° C. and room temperature, 0-24 h) was 85.3 to 101.9 ng/mL. The “percentage of compound remaining (by comparing with content at To), lowest over incubation” value (4° C.) was at least 88.2% and the “percentage of compound remaining (by comparing with content at To), lowest over incubation” value (room temperature) was “at least 83.7%”.
